Patent US20230227445A1, “BENZAMIDE COMPOUND AND USE THEREOF” (HUMANWELL HEALTHCARE (GROUP) CO., LTD., priority 2020, published 2023)
Counter-ions that a name gives are not always drawn.

Tests used:
hP2X3 receptor = molecular target: T1, hP2X3 receptor (Homo sapiens, UniProt P56373); test: Antagonistic activity against hP2X3 receptor by FLIPR calcium flow assay; type: cell-based; conditions: for IC50: human cells stably transfected with hP2X3, agonist α,β-meATP 400 nM; for antagonistic activity against hP2X3 receptor compared with Reference compound 1 (in words): vs Reference compound 1
T1 construct: expressed in transfected cells
T1 sequence (P56373 1-397): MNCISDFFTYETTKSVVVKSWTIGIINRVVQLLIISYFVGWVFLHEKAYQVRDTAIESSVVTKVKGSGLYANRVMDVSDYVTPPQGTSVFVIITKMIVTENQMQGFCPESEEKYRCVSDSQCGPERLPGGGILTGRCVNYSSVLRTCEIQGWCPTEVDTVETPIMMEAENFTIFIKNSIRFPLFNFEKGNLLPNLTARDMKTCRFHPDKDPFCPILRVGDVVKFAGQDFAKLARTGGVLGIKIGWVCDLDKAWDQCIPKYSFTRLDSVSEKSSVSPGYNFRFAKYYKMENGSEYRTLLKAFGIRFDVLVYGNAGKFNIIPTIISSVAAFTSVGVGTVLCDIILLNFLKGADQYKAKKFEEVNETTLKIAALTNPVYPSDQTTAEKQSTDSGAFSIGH
Description: The antagonistic activity of hP2X3 antagonists against hP2X3 receptor was evaluated by means of FLIPR Calcium 4 Assay Kit (Molecular Devices, R8141) and FLIPR TETRA instrument (Molecular Devices, 0296) by detecting calcium flow signals. 24h before the experiment, human cells, which had been stably transfected with hP2X3 receptors, were plated on a 384-well plate at 2×10^5 cells/mL, with 50 μL of cell suspension per well, and the plate was cultured in an incubator (37° C., 5% CO2) for 16 h to 24 h. The test compound solution (20 to 50 mM DMSO stock solution) with a concentration of 180 times the required concentration was prepared using DMSO. The stock solution was added to the 384-well plate at 500 nL per well, supplemented with 30 μL of FLIPR Assay buffer (1×HBSS+2 mM CaCl2 20 mM HEPES containing 1.26 mM Ca^2+). The 384-well plate was shaken for 20 to 40 min to mix evenly. An agonist (α, β-meATP) with a concentration of 3 times the required concentration (required final concentration was 400 nM) was prepared with FLIPR Assay buffer, and was added to another 384-well plate at 45 μL per well. The culture plate, on which the cells were plated one day ago, was taken, the cell supernatant was sucked and discarded, each well was added with 30 μL of Dye (FLIPR® Calcium 4 Assay Kit, diluted with FLIPR buffer), and then the plate was incubated for 1h. 15 μL of compound was added to each well of cells (using FLIPR sample injector). After 15 minutes, 22.5 μL of the agonist was added to each well, and the fluorescence signal (exciting light wavelength ranging from 470 nm to 495 nm, and emission wavelength ranging from 515 nm to 575 nm) was detect. […] An inhibition effect curve of the compound was fitted on the software GraphpadPrism6, and the IC50 value was calculated.

[1] = system: histamine/citric acid-stimulated cough in guinea pig; test: Efficacy test for histamine/citric acid-stimulated cough in guinea pig; type: in vivo; conditions: guinea pigs, nasal drops, 0.17 mg/kg to 1.5 mg/kg, histamine/citric acid stimulation
Description: Guinea pigs were adaptively fed for 3 days to 7 days before being grouped. When the body weight of the guinea pigs reached 300 g to 400 g, they were numbered and randomly grouped.
Compounds or an excipient were administered to guinea pigs by nasal drops 0.25 hour to 24 hours before the start of the cough assessment. The administration dose of the test sample ranged from 0.17 mg/kg to 1.5 mg/kg. For the cough assessment, the guinea pigs were placed in a whole-body volume scan box for adaptation, and then, they were provided with histamine nebulization and then citric acid nebulization. […]
The experimental data was statistically analyzed by one-way ANOVA to analyze and compare data of the various groups. The statistical analysis result p<0.05 was regarded as a significant difference. The t-test was employed for difference comparison between any two.

[2] = Pharmacokinetic assay in mouse; type: in vivo, ICR mice
Description: For a mouse pharmacokinetic assay, male ICR mice (20 g to 25 g) were selected and fasted overnight. Three mice were intragastrically administered with 10 mg/kg of the corresponding compound. The blood of the mice was collected before the administration and at 15 min, 30 min, 1 h, 2 h, 4 h, 8 h, and 24 h after the administration. The blood samples were centrifuged at 4° C. for 6 minutes at 6,800 g, plasma was collected and stored at −80° C.
The supernatant was mixed with 3 times the amount of water, and an appropriate amount of the mixed solution was taken for LC-MS/MS analysis. The primary pharmacokinetic parameters were analyzed by WinNonlin 7.0 software non-atrioventricular model.

rat taste = test: Taste test in rat (water vs 0.3 mM aqueous quinine solution intake); type: in vivo, SD rats; conditions: SD rats, 30 mg/kg i.p, 0.3 mM quinine, 15 min supply half an hour after administration
Description: SD rats were administered with the corresponding compound after 3 days of overnight water prohibition training. Each rat was supplied with 1 bottle of water and 1 bottle of 0.3 mM aqueous quinine solution half an hour after the administration. After 15 min of water supply, the bottles were removed. The intake amount of water and the intake amount of the 0.3 mM aqueous quinine solution were measured, respectively. The taste influence of the compound on SD rats was evaluated based on the difference between the intake amount of water and the intake amount of the aqueous quinine solution.

[3] = mouse, plasma, po, male ICR mice, intragastric administration, 10 mg/kg

| IC50 (hP2X3 receptor) [µM] | SMILES | other results |
| --- | --- | --- |
| 0.05 | Cc1cnc(-c2cc(OC(C)C(C)O)cc(C(=O)N[C@H](C)c3cnc(C(F)(F)F)nc3)c2F)s1 (single isomer, unassigned) [Compound I-5] | antagonistic activity against hP2X3 receptor compared with Reference compound 1 (in words) (hP2X3 receptor): better antagonistic activity |
| 0.373 | [2H]C([2H])([2H])N1CCO[C@@H](COc2cc(C(=O)N[C@H](C)c3cnc(C(F)(F)F)nc3)c(F)c(-c3ncc(C)s3)c2)C1 [Compound I-20, 2-fluoro-5-(((R)-4-(methyl-d3)morpholin-2-yl)methoxy)-3-(5-methylthiazol-2-yl)-N—((R)-1-(2-(trifluoromethyl)pyrimidin-5-yl)ethyl)benzamide] |  |
| 0.063 | Cc1cnc(-c2cc(O[C@@H](C)[C@H](C)O)cc(C(=O)N[C@H](C)c3cnc(C(F)(F)F)nc3)c2F)s1 [Compound I-28, 2-fluoro-5-(((2S, 3S)-3-hydroxybutan-2-yl)oxy)-3-(5-methylthiazol-2-yl)-N—((R)-1-(2-(trifluoromethyl)pyrimidin-5-yl)ethyl)benzamide] | Average cough times within 15 min [1]: 9.1; Cough inhibition rate vs. solvent [1]: 65.8%; pharmacokinetic properties in mouse compared with Reference compound 1 and Reference compound 2 (in words) ([2]; mouse assay, vs Reference compounds 1 and 2): significantly improved pharmacokinetic properties; AUC(0-t) [2, 3]: 8760 ng·h/mL; Cmax [2, 3]: 2400 ng/mL; Tmax [2, 3]: 0.5 h; half-life ([2]; mouse, plasma, po, male ICR mice, intragastric administration, 10 mg/kg, read-out: T½ (converted)): 2.65 h; antagonistic activity against hP2X3 receptor compared with Reference compound 1 (in words) (hP2X3 receptor): better antagonistic activity; Water/aqueous quinine solution (ratio of water intake to aqueous quinine solution intake) (rat taste): 15.4 |
| 0.448 | Cc1cnc(-c2cc(OC[C@H]3CNCCO3)cc(C(=O)N[C@H](C)c3cnc(C(F)(F)F)nc3)c2F)s1 [Compound I-18, 2-fluoro-3-(5-methylthiazol-2-yl)-5-(((R)-morpholin-2-yl)methoxy)-N—((R)-1-(2-(trifluoromethyl)pyrimidin-5-yl)ethyl)benzamide hydrochloride] |  |
| 0.168 | Cc1cnc(-c2cc(C(=O)N[C@H](C)c3cnc(C(F)(F)F)nc3)cc(O[C@@H]3CCOC3)c2F)s1 [Compound I-3, 4-fluoro-3-(5-methylthiazol-2-yl)-5-(((R)-tetrahydrofuran-3-yl)oxy)-N—((R)-1-(2-(trifluoromethyl)pyrimidin-5-yl)ethyl)benzamide] |  |
| 0.388 | Cc1cnc(-c2cc(OC3CCNCC3)cc(C(=O)N[C@H](C)c3cnc(C(F)(F)F)nc3)c2F)s1 [Compound I-17, (R)-2-fluoro-5-((1-piperidin-4-yl)oxy)-3-(5-methylthiazol-2-yl)-N-(1-(2-(trifluoromethyl)pyrimidin-5-yl)ethyl)benzamide] |  |
| 0.271 | CC(O)C(C)Oc1cc(C(=O)N[C@H](C)c2cnc(C(F)(F)F)nc2)c(F)c(-c2ncc(Cl)s2)c1 (stereo partly drawn) [Compound I-7, 3-(5-chlorothiazol-2-yl)-2-fluoro-5-((cis-3-hydroxybutan-2-yl)oxy)-N—((R)-1-(2-(trifluoromethyl)pyrimidin-5-yl)ethyl)benzamide] |  |
| 0.063 | Cc1cnc(-c2cc(OC(C)C(C)O)cc(C(=O)N[C@H](C)c3cnc(C(F)(F)F)nc3)c2F)s1 (single isomer, unassigned) [Compound I-4] | antagonistic activity against hP2X3 receptor compared with Reference compound 1 (in words) (hP2X3 receptor): better antagonistic activity |
| 0.31 | Cc1cnc(-c2cc(OC[C@H]3CN(C)CCO3)cc(C(=O)N[C@H](C)c3cnc(C(F)(F)F)nc3)c2F)s1 [Compound I-19, 2-fluoro-5-(((R)-4-methylmorpholin-2-yl)methoxy)-3-(5-methylthiazol-2-yl)-N—((R)-1-(2-(trifluoromethyl)pyrimidin-5-yl)ethyl)benzamide] |  |
| 0.305 | Cc1cnc(-c2cc(OC[C@@H]3COCCN3C)cc(C(=O)N[C@H](C)c3cnc(C(F)(F)F)nc3)c2F)s1 [Compound I-9, 2-fluoro-5-(((S)-4-methylmorpholin-3-yl)methoxy)-3-(5-methylthiazol-2-yl)-N—((R)-1-(2-(trifluoromethyl)pyrimidin-5-yl)ethyl)benzamide] |  |
| 0.433 | Cc1cnc(-c2cc(OC3CCN(C)CC3)cc(C(=O)N[C@H](C)c3cnc(C(F)(F)F)nc3)c2F)s1 [Compound I-16, (R)-2-fluoro-5-((1-methylpiperidin-4-yl)oxy)-3-(5-methylthiazol-2-yl)-N-(1-(2-(trifluoromethyl)pyrimidin-5-yl)ethyl)benzamide] |  |
| 0.099 | Cc1cnc(-c2cc(OC3COC3)cc(C(=O)N[C@H](C)c3cnc(C(F)(F)F)nc3)c2F)s1 [Compound I-14, (R)-2-fluoro-3-(5-methylthiazol-2-yl)-5-(oxetane-3-yloxy)-N-(1-(2-(trifluoromethyl)pyrimidin-5-yl)ethyl)benzamide] | antagonistic activity against hP2X3 receptor compared with Reference compound 1 (in words) (hP2X3 receptor): better antagonistic activity |
| 1.36 | Cc1cnc(-c2cc(OCC3CC3)cc(C(=O)N[C@H](C)c3cnc(C(F)(F)F)nc3)c2F)s1 [Compound I-15, (R)-5-(cyclopropylmethoxy)-2-fluoro-3-(5-methylthiazol-2-yl)-N-(1-(2-(trifluoromethyl)pyrimidin-5-yl)ethyl)benzamide] |  |
| 0.298 | Cc1cnc(-c2cc(O[C@@H]3CCOC3)c(F)c(C(=O)N[C@H](C)c3cnc(C(F)(F)F)nc3)c2)s1 [Compound I-2, 2-fluoro-5-(5-methylthiazol-2-yl)-3-(((R)-tetrahydrofuran-3-yl)oxy)-N—((R)-1-(2-(trifluoromethyl)pyrimidin-5-yl)ethyl)benzamide] |  |
